According to patent US9018388B2, “Pesticidal compositions and processes related thereto” (Dow AgroSciences LLC, priority 2012, dated 2015):

Experiments:
[1] = tested on: Beet Armyworm (BAW) (Spodoptera exigua); experiment: Bioassay on beet armyworm (BAW), 128-well diet tray assay; format: in vivo; details: Spodoptera exigua; Beet armyworm, 50 μg/cm^2; read-out: % Mortality BAW 50 μg/cm^2
Description: (§1) Bioassays on Beet Armyworm (“BAW”) and Corn Earworm (“CEW”)
(§2) Certain molecules disclosed in this document were tested against BAW and CEW using procedures described in the following examples. In the reporting of the results, the “BAW & CEW Rating Table” was used (See Table Section).
Bioassays on BAW (Spodoptera exigua)
Bioassays on BAW were conducted using a 128-well diet tray assay. One to five second instar BAW larvae were placed in each well (3 mL) of the diet tray that had been previously filled with 1 mL of artificial diet to which 50 μg/cm^2 of the test compound (dissolved in 50 μL of 90:10 acetone-water mixture) had been applied (to each of eight wells) and then allowed to dry. Trays were covered with a clear self-adhesive cover and held at 25° C., 14:10 light-dark for five to seven days. Percent mortality was recorded for the larvae in each well; activity in the eight wells was then averaged. The results are indicated in the table entitled “Table 5: Biological Results” (See Table Section).

[2] = tested on: Corn Earworm (CEW) (Helicoverpa zea); experiment: Bioassay on corn earworm (CEW), 128-well diet tray assay; format: in vivo; details: Helicoverpa zea; Corn earworm, 50 μg/cm^2; read-out: % Mortality CEW 50 μg/cm^2
Description: as §1, §2
Bioassays on CEW (Helicoverpa zea)
Bioassays on CEW were conducted using a 128-well diet tray assay. One to five second instar CEW larvae were placed in each well (3 mL) of the diet tray that had been previously filled with 1 mL of artificial diet to which 50 μg/cm^2 of the test compound (dissolved in 50 μL of 90:10 acetone-water mixture) had been applied (to each of eight wells) and then allowed to dry. Trays were covered with a clear self-adhesive cover and held at 25° C., 14:10 light-dark for five to seven days. Percent mortality was recorded for the larvae in each well; activity in the eight wells was then averaged. The results are indicated in the table entitled “Table 5: Biological Results” (See Table Section).

Row | SMILES | pest or weed control at 50 µg/cm2, 50 µg/cm2 [1] | pest or weed control at 50 µg/cm2, 50 µg/cm2 [2]
1 | CCOc1ccccc1N1CCCS/C1=N\N=C\c1ccc(-c2ncn(-c3ccc(OC(F)(F)F)cc3)n2)cc1 [Compound 208C] | 50 to 100% | 50 to 100%
2 | CC1CS/C(=N\N=C\c2ccc(-c3ncn(-c4ccc(OC(F)(F)F)cc4)n3)cc2)N1c1c(Cl)cccc1C(F)(F)F (stereo not shown) [Compound 160C] | 50 to 100% | 50 to 100%
3 | C/C(=N\N=C1/SCN1c1ccccc1C(C)C)c1ccc(-c2ncn(-c3ccc(OC(F)(F)F)cc3)n2)cc1 [Compound 248C] | 50 to 100% | 50 to 100%
4 | CCCS/C(=N\c1c(Cl)cccc1Cl)N/N=C/c1ccc(-c2ncn(-c3ccc(OC(F)(F)F)cc3)n2)cc1 [Compound 3C] | 50 to 100% | 50 to 100%
5 | COc1cc(C)c(/N=C(\N/N=C/c2ccc(-c3ncn(-c4ccc(C(F)(F)F)cc4)n3)cc2)SCOC(=O)CNC(=O)OCc2ccccc2)c(C)c1 [Compound 45C] | 50 to 100% | 50 to 100%
6 | Cc1cccc(C)c1/N=C(/N/N=C/c1ccc(-c2ncn(-c3ccc(OC(F)(F)F)cc3)n2)cc1)SCc1ccc(C(=O)O)cc1 [Compound 6C] | 50 to 100% | 50 to 100%
7 | CCS/C(=N\c1c(Cl)cccc1Cl)N/N=C/c1ccc(-c2ncn(-c3ccc(OC(F)(F)F)cc3)n2)cc1 [Compound 2C] | 50 to 100% | 50 to 100%
8 | CC(C)c1ccc(F)cc1N1CS/C1=N\N=C\c1ccc(-c2ncn(-c3ccc(C(F)(C(F)(F)F)C(F)(F)C(F)(F)F)cc3)n2)cc1 (stereo not shown) [Compound 258C] | 0 to 50% | 50 to 100%
9 | Cc1cccc(C)c1/N=C(/N/N=C/c1ccc(-c2ncn(-c3ccc(OC(F)(F)F)cc3)n2)cc1)SCC(=O)NCC(N)C(=O)O (stereo not shown) [Compound 63C] | 50 to 100% | 50 to 100%
10 | CC(C)c1ccccc1N1CS/C1=N\N=C\c1ccc(-c2ncn(-c3ccc4c(c3)OC(F)(F)O4)n2)cc1 [Compound 249C] | 50 to 100% | 50 to 100%
11 | CC(C)c1ccccc1N1CS/C1=N\N=C\c1ccc(-c2ncn(-c3ccc(OC(F)(F)C(F)(F)F)cc3)n2)cc1 [Compound 247C] | 50 to 100% | 50 to 100%
12 | CC(C)c1ccccc1N1C(=O)CS/C1=N\N=C\c1ccc(-c2ncn(-c3ccc(C(F)(F)F)cc3)n2)cc1 [Compound 120C] | 50 to 100% | 50 to 100%
13 | Cc1cs/c(=N\N=C\c2ccc(-c3ncn(-c4ccc(OC(F)(F)F)cc4)n3)cc2)n1-c1ccccc1C(C)C [Compound 176C] | 50 to 100% | 50 to 100%
14 | Cc1cc(Cl)cc(C)c1N1C(=O)CS/C1=N\N=C\c1ccc(-c2ncn(-c3ccc(OC(F)(F)F)cc3)n2)cc1 [Compound 105C] | 50 to 100% | 50 to 100%
15 | O=C1CS/C(=N\N=C\c2ccc(-c3ncn(-c4ccc(OC(F)(F)F)cc4)n3)cc2)N1c1ccccc1OC(F)F [Compound 126C] | 50 to 100% | 50 to 100%
16 | CC1CS/C(=N\N=C\c2ccc(-c3ncn(-c4ccc(OC(F)(F)F)cc4)n3)cc2)N(c2ccccc2OC(F)(F)F)C1 (stereo not shown) [Compound 214C] | 50 to 100% | 50 to 100%
17 | Cc1cccc(C)c1/N=C(/N/N=C/c1ccc(-c2ncn(-c3ccc(OC(F)(F)F)cc3)n2)cc1)SCc1ccc(C(F)(F)F)o1 [Compound 16C] | 50 to 100% | 50 to 100%
18 | CC(C)c1ccc(F)cc1N1CS/C1=N\N=C\c1ccc(-c2ncn(-c3ccc(C(F)(F)C(F)(F)F)cc3)n2)cc1 [Compound 260C] | 50 to 100% | 50 to 100%
19 | CC(C)c1ccc(F)cc1N1CS/C1=N\N=C\c1ccc(-c2ncn(-c3ccc(OC(F)(F)F)cc3)n2)cc1 [Compound 251C] | 50 to 100% | 50 to 100%
20 | COc1ccc(/N=C(/N/N=C/c2ccc(-c3ncn(-c4ccc(OC(F)(F)C(F)(F)F)cc4)n3)cc2)SCC(=O)O)c(C)c1 [Compound 50C] | 50 to 100% | 50 to 100%
